In patent publication US20260217768A1, “NANOPARTICLE-NHE3 PEPTIDE TO TREAT DIARRHEA” (The Johns Hopkins University, priority 2023, published 2026):

Experiments:
NHE3 [1] = test: NHE3 activity in differentiated human enteroid monolayers after nanoparticle delivery of peptide; format: cell-based; details: nanoparticles (250 nM) 18 h, FSK exposure, n=4
Description: NHE3 activity in PS120, Caco-2/BBe cells and human jejunal enteroids was determined fluorometrically (Photon Technologies Incorporated) using the intracellular pH sensitive dye BCECF, as reported (Levine et al., 1993; Sarker et al., 2008; Foulke-Abel et al., 2020). PS120/HA3-NHE3 cells were seeded on glass cover slips and studied at 70-80% confluency. Caco-2/BBe/HA3-NHE3 cells were grown to confluency on Transwell inserts (polyester, 0.4-μm pore size) and studied approximately 14-16 days pod. Human duodenal enteroid monolayers on Transwell inserts were differentiated for 5 days in the absence of Wnt3a, R-spondin, and noggin as described (Noel et al., 2017; Staab et al., 2020).
Rates of Na^+/H^+ exchange were determined as Na^+-dependent alkalinization in the presence of 50-μM HOE-694 (to inhibit all other plasma membrane NHE isoforms) in HCO3-free solutions, with internal calibration using the nigericin/K+ method, as previously described (Sarker et al., 2008; Foulke-Abel et al., 2020). Kinetic analysis was used for PS120 cell studies (expressed as Vmax) and initial rates (ΔpH/min) for Caco-2/BBe cells, mouse intestine in vitro, and human enteroids. For in vitro mouse jejunal transport studies, NHE3 activity (in the presence of 50-μM HOE-694) was measured using SNARF-4F at 37° C. in a perfusion chamber using a two-photon microscope (Olympus FV1000) and 25× objective, as described (Murtazina et al., 2011).
PBAE polymer and peptide were separately dissolved in pH 7.4 150-mM PBS and combined at a 1:1 volume ratio. Final concentrations of the components were 6-ng/μL peptide and 180-ng/μL polymer (30:1 polymer: peptide weight ratio). Polymer and peptide nanoparticles were allowed to self-assemble at room temperature for 10 minutes. For characterization, nanoparticles were diluted 1:5 in PBS. Hydrodynamic diameter and zeta potential were measured using a Malvern Zetasizer Pro (Malvern Panalytical, Malvern, UK). Stability was assessed by incubating nanoparticles at RT up to 45 minutes then measuring hydrodynamic diameter over 45 minutes. […]

[2] = Nanoparticle characterization: hydrodynamic diameter, zeta potential, stability; format: physicochemical; details: CR5 with peptide, 30:1 polymer:peptide weight ratio
Description: PBAE polymer and peptide were separately dissolved in pH 7.4 150-mM PBS and combined at a 1:1 volume ratio. Final concentrations of the components were 6-ng/μL peptide and 180-ng/μL polymer (30:1 polymer: peptide weight ratio). Polymer and peptide nanoparticles were allowed to self-assemble at room temperature for 10 minutes. For characterization, nanoparticles were diluted 1:5 in PBS. Hydrodynamic diameter and zeta potential were measured using a Malvern Zetasizer Pro (Malvern Panalytical, Malvern, UK). Stability was assessed by incubating nanoparticles at RT up to 45 minutes then measuring hydrodynamic diameter over 45 minutes. Nanoparticles were made immediately prior to each experiment.

mouse ileal loops [3] = test: Basal fluid absorption in closed mouse ileal loops, nanoparticle-conjugated peptides, with or without Tenapanor; format: in vivo; details: nanoparticle conjugated peptide 400 nM, Tenapanor (10 μM) in both incubation periods
Description: (§1) All in vivo studies were performed on 8-12 week old C57B1/6N mice anesthetized with isofluorane and kept at 37° C. via heating lamps and rectal thermal probes.
(§2) Effect on basal fluid transport and effect of Tenapanor. Mice operated on as above had 3-4 cm closed ileal loops inoculated with 150-μL PBS containing 400-nM nanoparticle-CP-2 or -N3SP-1Δ7. After 4 h, the loops were drained and inoculated with 150-μL PBS. 30 min later, the animals were sacrificed and loop weight/length determined. In parallel studies, Tenapanor (10 μM) was present in both incubation periods. Similar to the BODIPY-conjugated peptide studies, the effects of nanoparticle-CP-2 or N3SP-1Δ7 (4 μM) compared to PBS alone were determined on net fluid secretion produced by inoculation of 0.1-μg CTx. The nanoparticle-peptides plus 0.1-μg CTx in 150-μL PBS were inoculated in 3-4 cm long closed ileal loops. Additional controls included loops exposed only to 150-μL PBS and those only exposed to the CTx/PBS. 4 h later, the animals were sacrificed and loop weight/cm length was determined.

mouse jejunum = details: in vivo
adenylate cyclase-cAMP = test: cAMP assay in human enteroid monolayers exposed to FSK; format: cell-based; details: nanoparticles with 250-nM peptide, FSK (10 μM) 45 min, CP-2 vs N3SP-1Δ7
Description: Human jejunal enteroid monolayers on Transwell inserts (Corning Cat #: 3470) were differentiated for 5 days and then in serum-free media were exposed apically to nanoparticles containing either 250-nM CP-2 or N3SP-1Δ7. The peptide and polymer in PBS were prepared just before use, allowed to combine for 10 min before being added to the apical surface of enteroid monolayers at room temperature. Monolayers were incubated for 4 hours at 37° C., 5% CO2 incubator before the nanoparticles were removed, then monolayers were washed 3 times with cold PBS and changed to differentiation media and moved to a 37° C. incubator. Differentiation media was removed 24 hours later and washed twice with CMGF-media (Advanced DMEM/F12 with 10-mM Hepes, 10-mM GlutaMax, and 1000 Units/mL Penn/Strep). Next, 100 μL of CMGF-media containing 10-mM Theophylline, 50-μM Cilostazol and 50-μM Rolipram was added to the apical and basolateral surfaces followed by exposure to FSK (10 μM) at 37° C., 5% CO2, for 45 min before apical and basolateral media were collected and cells were lysed in 200-μL 0.1 M HCl for cAMP analysis. CAMP in apical, basolateral, and cells was determined using nonradioactive, CAMP-ELISA kits from ENZO Life Sciences (Loerrach, German), using the acetylation protocol in which the yellow-colored product is inversely proportional to the amount of CAMP present in the sample.

mouse ileal loops [4] = test: CTx-induced fluid secretion in closed mouse ileal loops, nanoparticle-conjugated peptides; format: in vivo; details: nanoparticle-peptide 4 μM with 0.1-μg CTx, 4 hours
Description: as §1, §2

NHE3 [5] = test: NHE3 stimulation, summary statement over models and delivery systems; format: cell-based; details: using either delivery system (maleimide or nanoparticles); read-out: EC50 for stimulation of basal and second messenger inhibited NHE3

Substance | NHE3 activity after FSK, % of same peptide without FSK (NHE3 [1]) [%] | surface zeta potential (electrophoretic light scattering) [2] [mV] | nanoparticle diameter (DLS) ([2]; aqueous) [nm] | residual fluid in presence of Tenapanor, CP2 vs N3SP-1Δ7 (mouse ileal loops [3]) | effect on CTx-stimulated net fluid secretion (loop weight/cm) (mouse jejunum) | FSK-increased intracellular cAMP (adenylate cyclase-cAMP) | effect on CTx-induced fluid in ileal loops (loop weight/length) (mouse ileal loops [4]) | EC50 (NHE3 [5]) [nM]
CP-2: control peptide, N3SP-1 lacking first ten N-terminal amino acids (rabbit NHE3 residues 578-605) (TVEASVSYLLRESASAVCLDMQSLEQRR; UniProt P26432 578-605, looked up, fragment) | 77.2 | 24.6±0.5 | 319±55 | no difference in residual fluid | Results similar to those with N3SP-1 and CP-1 | similar | did not reduce the residual loop volume | –
N3SP: general name of the NHE3 stimulatory peptide (N3SP-1 and active truncations) (RPSTVEASVSYLLRESASAVCLDMQSLEQRR) [Peptide N3SP] | – | – | – | – | – | – | – | ~150
